Measurements published in patent publication US20250170248A1, “SMARCA DEGRADERS AND USES THEREOF” (Kymera Therapeutics, Inc., priority 2021, published 2025).

Experiments:
Format in all cases: cell-based
SMARCA2 [1] = target: T1, SMARCA2 (Homo sapiens, UniProt P51531); test: MSD SMARCA2 degradation in A549 cell line; conditions: 24 h; for Dmax: A549, A549 cells; for DC50: A549 cells, read-out: SMARCA2 MSD A549 degradation 24 h: Average external-Abs DC50
Method in brief: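 SMARCA2 protein remaining after 24 h exposure of A549 cells (top concentration 1000 nM, 3-fold dilutions) was measured by MSD electrochemiluminescence immunoassay of cell lysates. Results are given as binned DC50 and maximal degradation (Dmax) codes.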

SMARCA4 = target: T2, SMARCA4 (Homo sapiens, UniProt P51532); test: SMARCA4 Western blot degradation in MV4-11 cells; conditions: 24 h; for Dmax: MV4-11, MV4-11 cells, read-out: SMARCA4 MSD MV411 degradation 24 h: average Dmax %; for DC50: MV4-11 cells, read-out: SMARCA4 MSD MV411 degradation 24 h: Mean external-Abs DC50
T2 construct: SMARCA2/SMARCA4 protein degradation selectivity in MV4-11 cells; endogenous in cells; host or cells: MV4-11
Method in brief: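 Protein levels quantified by LI-COR Western blot (beta-actin loading control) in RIPA lysates of MV4-11 cells after 24 h compound exposure. Degradation reported as DC50, Dmax % at 24 h and SMARCA2 vs SMARCA4 selectivity, each binned into letter codes.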

SMARCA2 [2] = target: T1, SMARCA2; test: SMARCA2 Western blot degradation in MV4-11 cells; parameters: SMARCA2/SMARCA4 protein degradation selectivity in MV4-11 cells; endogenous in cells; host or cells: MV4-11; conditions: for Dmax: MV4-11, MV4-11 cells, read-out: SMARCA2 MSD MV411 degradation 24 h: average Dmax %; for Dmax / DC50: 24 h; for DC50 / Selectivity in MV411: MV4-11 cells; for DC50: read-out: SMARCA2 MSD MV411 degradation 24 h: Mean external-Abs DC50; for Selectivity in MV411: SMARCA2/4 selectivity

T2 sequence (P51532 whole entry): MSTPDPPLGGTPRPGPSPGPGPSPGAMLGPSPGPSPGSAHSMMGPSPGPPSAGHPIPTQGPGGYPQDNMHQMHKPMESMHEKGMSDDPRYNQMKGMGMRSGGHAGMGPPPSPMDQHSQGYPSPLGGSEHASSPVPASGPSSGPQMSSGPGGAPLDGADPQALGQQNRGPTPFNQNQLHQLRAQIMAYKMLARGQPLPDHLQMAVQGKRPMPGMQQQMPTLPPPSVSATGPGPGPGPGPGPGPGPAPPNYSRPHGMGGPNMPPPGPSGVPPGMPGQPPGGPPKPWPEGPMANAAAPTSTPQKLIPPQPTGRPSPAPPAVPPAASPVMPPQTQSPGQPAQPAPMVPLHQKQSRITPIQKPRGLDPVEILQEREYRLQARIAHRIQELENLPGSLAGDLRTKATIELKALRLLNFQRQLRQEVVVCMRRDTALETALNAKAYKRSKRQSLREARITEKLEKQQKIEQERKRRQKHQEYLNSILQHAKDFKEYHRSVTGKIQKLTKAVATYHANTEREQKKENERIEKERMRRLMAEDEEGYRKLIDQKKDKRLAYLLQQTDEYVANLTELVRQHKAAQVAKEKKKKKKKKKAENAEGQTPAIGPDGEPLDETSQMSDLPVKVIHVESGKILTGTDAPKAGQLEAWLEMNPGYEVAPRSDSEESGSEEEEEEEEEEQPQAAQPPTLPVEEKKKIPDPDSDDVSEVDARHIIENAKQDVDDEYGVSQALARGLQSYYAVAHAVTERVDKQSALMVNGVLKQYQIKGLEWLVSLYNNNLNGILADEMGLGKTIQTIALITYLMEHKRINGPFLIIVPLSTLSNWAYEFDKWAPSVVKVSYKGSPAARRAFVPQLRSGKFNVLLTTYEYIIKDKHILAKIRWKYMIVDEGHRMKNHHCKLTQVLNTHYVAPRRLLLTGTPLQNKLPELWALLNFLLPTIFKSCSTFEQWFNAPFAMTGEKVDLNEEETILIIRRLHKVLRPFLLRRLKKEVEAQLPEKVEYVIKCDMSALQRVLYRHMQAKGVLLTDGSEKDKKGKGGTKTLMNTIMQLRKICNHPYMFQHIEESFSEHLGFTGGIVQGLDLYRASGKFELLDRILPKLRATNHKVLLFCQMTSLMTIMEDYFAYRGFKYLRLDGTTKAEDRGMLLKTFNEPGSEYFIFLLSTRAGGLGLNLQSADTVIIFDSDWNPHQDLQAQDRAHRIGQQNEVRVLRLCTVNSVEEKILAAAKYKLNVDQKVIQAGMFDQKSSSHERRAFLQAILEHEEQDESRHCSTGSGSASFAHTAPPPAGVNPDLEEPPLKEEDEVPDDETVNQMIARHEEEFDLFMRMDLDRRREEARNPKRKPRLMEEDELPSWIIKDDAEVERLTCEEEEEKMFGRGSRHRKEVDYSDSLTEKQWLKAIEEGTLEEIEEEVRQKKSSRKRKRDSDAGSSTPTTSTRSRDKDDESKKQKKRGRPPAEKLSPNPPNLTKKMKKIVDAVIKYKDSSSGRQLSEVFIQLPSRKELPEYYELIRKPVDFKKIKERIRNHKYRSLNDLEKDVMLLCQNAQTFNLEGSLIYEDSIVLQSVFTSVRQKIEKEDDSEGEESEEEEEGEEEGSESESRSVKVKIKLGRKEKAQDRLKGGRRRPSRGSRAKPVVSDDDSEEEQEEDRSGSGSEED
T1 sequence (P51531 whole entry): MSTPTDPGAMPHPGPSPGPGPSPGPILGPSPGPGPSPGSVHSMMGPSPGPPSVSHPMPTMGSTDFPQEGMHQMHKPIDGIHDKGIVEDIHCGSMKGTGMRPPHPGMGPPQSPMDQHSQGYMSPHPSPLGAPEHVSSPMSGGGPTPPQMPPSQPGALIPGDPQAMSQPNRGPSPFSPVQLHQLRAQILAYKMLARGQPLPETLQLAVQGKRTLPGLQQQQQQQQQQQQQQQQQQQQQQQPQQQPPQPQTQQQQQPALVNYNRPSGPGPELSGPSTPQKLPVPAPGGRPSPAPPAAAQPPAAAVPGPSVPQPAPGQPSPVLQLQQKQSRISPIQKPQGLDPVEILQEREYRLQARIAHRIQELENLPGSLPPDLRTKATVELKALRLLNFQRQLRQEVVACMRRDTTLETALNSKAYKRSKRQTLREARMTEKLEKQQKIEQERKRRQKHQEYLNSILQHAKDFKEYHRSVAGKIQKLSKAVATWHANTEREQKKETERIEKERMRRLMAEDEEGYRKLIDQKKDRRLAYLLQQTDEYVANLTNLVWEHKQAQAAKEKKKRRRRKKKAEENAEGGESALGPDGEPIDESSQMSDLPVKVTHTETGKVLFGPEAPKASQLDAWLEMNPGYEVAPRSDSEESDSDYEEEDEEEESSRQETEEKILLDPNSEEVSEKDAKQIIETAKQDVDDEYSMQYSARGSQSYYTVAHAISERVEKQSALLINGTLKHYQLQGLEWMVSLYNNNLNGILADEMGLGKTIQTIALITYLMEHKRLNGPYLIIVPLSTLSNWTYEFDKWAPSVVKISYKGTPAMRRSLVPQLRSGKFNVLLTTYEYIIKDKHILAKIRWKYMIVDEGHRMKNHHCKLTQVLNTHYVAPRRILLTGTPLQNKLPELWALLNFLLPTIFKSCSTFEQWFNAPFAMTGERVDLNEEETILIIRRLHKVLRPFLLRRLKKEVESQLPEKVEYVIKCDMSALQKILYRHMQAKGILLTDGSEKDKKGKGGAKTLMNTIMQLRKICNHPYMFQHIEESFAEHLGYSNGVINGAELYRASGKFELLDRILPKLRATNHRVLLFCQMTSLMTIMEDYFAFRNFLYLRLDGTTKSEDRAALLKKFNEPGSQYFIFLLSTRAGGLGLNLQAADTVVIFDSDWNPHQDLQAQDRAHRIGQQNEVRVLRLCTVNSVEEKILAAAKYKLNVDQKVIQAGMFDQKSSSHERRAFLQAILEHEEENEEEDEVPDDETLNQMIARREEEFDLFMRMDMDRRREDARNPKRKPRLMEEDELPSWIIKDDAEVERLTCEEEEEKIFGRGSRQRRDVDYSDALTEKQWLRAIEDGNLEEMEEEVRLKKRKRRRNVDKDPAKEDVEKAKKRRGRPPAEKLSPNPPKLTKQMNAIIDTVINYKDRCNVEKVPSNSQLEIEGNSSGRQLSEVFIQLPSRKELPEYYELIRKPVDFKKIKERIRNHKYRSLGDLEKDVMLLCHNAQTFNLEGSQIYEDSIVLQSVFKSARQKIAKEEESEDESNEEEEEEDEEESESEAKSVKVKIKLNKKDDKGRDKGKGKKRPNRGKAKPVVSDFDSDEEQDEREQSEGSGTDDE

SMILES	Dmax (SMARCA2 [1])	DC50 (SMARCA2 [1])	Dmax (SMARCA4)	DC50 (SMARCA4)	Dmax (SMARCA2 [2])	DC50 (SMARCA2 [2])	Selectivity in MV411 (SMARCA2 [2])
C#Cc1ccc(CNC(=O)[C@@H]2C[C@@H](O)CN2C(=O)[C@@H](NC(=O)N2CCC(CN3CCC(N4CCC(N5CCc6[nH]c7nnc(-c8ccccc8O)cc7c6[C@H]5C)CC4)CC3)CC2)C(C)(C)C)cc1 [I-189]	50 to 70%	> 100 nM	< 50%	> 100 nM	< 50%	> 100 nM	C (C (10-100 fold))
C#Cc1ccc(CNC(=O)[C@@H]2C[C@@H](O)CN2C(=O)[C@@H](NC(=O)N2CC3(CC(CN4CCC(N5CCC(N6CCc7[nH]c8nnc(-c9ccccc9O)cc8c7[C@H]6C)CC5)CC4)C3)C2)C(C)(C)C)cc1 [I-190]	> 90%	> 100 nM	50 to 70%	> 100 nM	50 to 70%	10 to 100 nM	C (C (10-100 fold))
C#Cc1ccc(CNC(=O)[C@@H]2C[C@@H](O)CN2C(=O)[C@@H](NC(=O)N2CC3(CC(N4CCC(N5CCc6[nH]c7nnc(-c8ccccc8O)cc7c6[C@H]5C)CC4)C3)C2)C(C)(C)C)cc1 [I-191]	> 90%	> 100 nM	70 to 90%	> 100 nM	70 to 90%	1 to 10 nM	C (C (10-100 fold))
C#Cc1ccc(CNC(=O)[C@@H]2C[C@@H](O)CN2C(=O)[C@@H](NC(=O)N2CCN(C[C@H]3CC[C@H](N4CCC(N5CCc6[nH]c7nnc(-c8ccccc8O)cc7c6[C@H]5C)CC4)CC3)CC2)C(C)(C)C)cc1 [I-194]	70 to 90%	> 100 nM	< 50%	> 100 nM	< 50%	> 100 nM	C (C (10-100 fold))
C#Cc1ccc(CNC(=O)[C@@H]2C[C@@H](O)CN2C(=O)[C@@H](NC(=O)N2CCC(CN3CCC(N4CCc5[nH]c6nnc(-c7ccccc7O)cc6c5[C@H]4C)CC3)CC2)C(C)(C)C)cc1 [I-198]	70 to 90%	> 100 nM	< 50%	> 100 nM	50 to 70%	10 to 100 nM	C (C (10-100 fold))

Now from value to molecule:

Dmax (SMARCA2 [1])	DC50 (SMARCA2 [1])	Dmax (SMARCA4)	DC50 (SMARCA4)	Dmax (SMARCA2 [2])	DC50 (SMARCA2 [2])	Selectivity in MV411 (SMARCA2 [2])	SMILES
70 to 90%	> 100 nM	< 50%	> 100 nM	< 50%	> 100 nM	C (C (10-100 fold))	C#Cc1ccc(CNC(=O)[C@@H]2C[C@@H](O)CN2C(=O)[C@@H](NC(=O)N2CCC(C(=O)N3CCC(N4CCC(N5CCc6[nH]c7nnc(-c8ccccc8O)cc7c6[C@H]5C)CC4)CC3)CC2)C(C)(C)C)cc1 [I-192]
70 to 90%	> 100 nM	< 50%	> 100 nM	< 50%	> 100 nM	C (C (10-100 fold))	C#Cc1ccc(CNC(=O)[C@@H]2C[C@@H](O)CN2C(=O)[C@@H](NC(=O)N2CCN(C[C@H]3CC[C@@H](N4CCC(N5CCc6[nH]c7nnc(-c8ccccc8O)cc7c6[C@H]5C)CC4)CC3)CC2)C(C)(C)C)cc1 [I-193]
70 to 90%	> 100 nM	< 50%	> 100 nM	< 50%	> 100 nM	C (C (10-100 fold))	C#Cc1ccc(CNC(=O)[C@@H]2C[C@@H](O)CN2C(=O)[C@@H](NC(=O)C2CCN(CC3CCC(N4CCC(N5CCc6[nH]c7nnc(-c8ccccc8O)cc7c6[C@H]5C)CC4)CC3)CC2)C(C)(C)C)cc1 (stereo partly drawn) [I-197]
> 90%	> 100 nM	< 50%	> 100 nM	50 to 70%	10 to 100 nM	C (C (10-100 fold))	C#Cc1ccc(CNC(=O)[C@@H]2C[C@@H](O)CN2C(=O)[C@@H](NC(=O)N2CCN(C[C@H]3CC[C@@H](N4CCc5[nH]c6nnc(-c7ccccc7O)cc6c5[C@H]4C)CC3)CC2)C(C)(C)C)cc1 [I-199]
